Source: patent US9642787B2, “Method of inhibiting copper deposition on hair” (The Procter & Gamble Company, priority 2014, dated 2017)

Columns and labels:
[1] = Formation Constant (Log KML) of metal chelant complex with copper; format: physicochemical; settings: formation constant for copper, concentrations in mol/dm^3, logarithm
Description: (§1) The Formation Constant of a metal chelant interaction is defined as: [formula] where: [ML]=concentration of metal ligand complex at equilibrium [M]=concentration of free metal ion [L]=concentration of free ligand in a fully deprotonated form KML=formation constant for the metal chelant complex. All concentrations are expressed in mol/dm^3. Formation Constants are conveniently expressed as logarithms.

[2] = Formation Constant (Log KML) of metal chelant complex with calcium; format: physicochemical; settings: formation constant for calcium, concentrations in mol/dm^3, logarithm
Description: as §1

Log KML Cu [1]	Log KML Ca [2]	Structure (SMILES)
8.1	1.3	C[C@H](N)C(=O)O [Alanine]
7.8		NC(=O)C[C@H](N)C(=O)O [Asparagine]
18.4	4.6	O=C(O)CC(NCCNC(CC(=O)O)C(=O)O)C(=O)O (centres unmarked) [EDDS, ethylenediamine-N,N′-disuccinic acid]
7.7		NC(=O)CC[C@H](N)C(=O)O [Glutamine]
8.2	1.1	NCC(=O)O [Glycine]
10.2	1.2	N[C@@H](Cc1c[nH]cn1)C(=O)O [Histidine]
8.8		O=C(O)[C@@H]1CCCN1 [Proline]
7.9	1.4	N[C@@H](CO)C(=O)O [Serine]

Structure (SMILES)	Log KML Cu [1]	Log KML Ca [2]
N[C@@H](Cc1c[nH]c2ccccc12)C(=O)O [Tryptophan]	8.2	
